# Laboratory results published in patent US12091561B2, “Recording method and recording apparatus” (Seiko Epson Corporation, priority 2021, dated 2024).
# Description: The solubility is measured as described below. A predetermined amount of a compound is mixed with 100 g of water in an environment at 25° C. and is then stirred for 30 minutes. […] As described above, when a predetermined amount of the compound is mixed with 100 g of water, the maximum predetermined amount which is judged to be dissolved is used as the solubility.
row,SMILES,SOLUBILITY [g/100 g OF WATER]
1,"OC1CCCCC1O (stereo not drawn) [1,2-CYCLOHEXANEDIOL, 1,2-cyclohexanediol]",>100 g/100 g OF WATER
2,"CC(C)(O)CCC(C)(C)O [2,5-dimethyl-2,5-hexanediol]",14 g/100 g OF WATER
3,"CC(C)(CO)CO [NEOPENTYL GLYCOL, neopentyl glycol]",80 g/100 g OF WATER
4,"CC(C)(O)C(C)(C)O [PINACOL, pinacol]",∞
5,"CC(O)CO (stereo not drawn) [PROPYLENE GLYCOL, propylene glycol]",∞
6,"O=C1CCCCCN1 [ε-CAPROLACTAM, ε-caprolactam]",>100 g/100 g OF WATER
